ChEMBL document CHEMBL3045943, “Novel N-aryl(alkaryl)-2-[(3-R-2-oxo-2H-[1,2,4]triazino[2,3-c]quinazoline-6-yl)thio]acetamides: synthesis, cytotoxicity, anticancer activity, COMPARE analysis and docking” (2013)

What was measured:
Format in all cases: functional
[1] = system: PC-3; experiment: Cytotoxicity against Homo sapiens (human) PC3 cells assessed as cell growth at 10 uM after 48 hr by SRB assay relative to control; conditions: PC-3, 48 h, read-out: Activity
[2] = system: UO-31; experiment: Cytotoxicity against Homo sapiens (human) UO31 cells assessed as cell growth at 10 uM after 48 hr by SRB assay relative to control; conditions: UO-31, 48 h, read-out: Activity
[3] = system: A498; experiment: Cytotoxicity against Homo sapiens (human) A498 cells assessed as cell growth at 10 uM after 48 hr by SRB assay relative to control; conditions: A498, 48 h, read-out: Activity
[4] = system: UO-31; experiment: Cytotoxicity against Homo sapiens (human) UO31 cells after 48 hr by SRB assay; conditions: UO-31, 48 h
[5] = system: CAKI-1; experiment: Cytotoxicity against Homo sapiens (human) Caki1 cells after 48 hr by SRB assay; conditions: CAKI-1, 48 h
[6] = system: ACHN; experiment: Cytotoxicity against Homo sapiens (human) ACHN cells after 48 hr by SRB assay
[7] = system: IGROV-1; experiment: Cytotoxicity against Homo sapiens (human) IGROV1 cells after 48 hr by SRB assay; conditions: IGROV-1, 48 h
[8] = system: SK-MEL-5; experiment: Cytotoxicity against Homo sapiens (human) SK-MEL-5 cells after 48 hr by SRB assay; conditions: SK-MEL-5, 48 h
[9] = system: LOX IMVI; experiment: Cytotoxicity against Homo sapiens (human) LOXIMVI cells after 48 hr by SRB assay
[10] = system: SF-295; experiment: Cytotoxicity against Homo sapiens (human) SF295 cells after 48 hr by SRB assay; conditions: SF-295, 48 h
[11] = system: BT-549; experiment: Cytotoxicity against Homo sapiens (human) BT549 cells after 48 hr by SRB assay; conditions: BT-549, 48 h
[12] = system: A549; experiment: Cytotoxicity against Homo sapiens (human) A549 cells after 48 hr by SRB assay; conditions: A549, 48 h
[13] = system: HOP-92; experiment: Cytotoxicity against Homo sapiens (human) HOP92 cells assessed as cell growth at 10 uM after 48 hr by SRB assay relative to control; conditions: HOP-92, 48 h, read-out: Activity
[14] = system: MDA-MB-468; experiment: Cytotoxicity against Homo sapiens (human) MDA-MB-468 cells assessed as cell growth at 10 uM after 48 hr by SRB assay relative to control; conditions: MDA-MB-468, 48 h, read-out: Activity
[15] = system: RXF 393; experiment: Cytotoxicity against Homo sapiens (human) RXF393 cells assessed as cell growth at 10 uM after 48 hr by SRB assay relative to control; conditions: RXF 393, 48 h, read-out: Activity
[16] = system: OVCAR-8; experiment: Cytotoxicity against Homo sapiens (human) OVCAR8 cells assessed as cell growth at 10 uM after 48 hr by SRB assay relative to control; conditions: OVCAR-8, 48 h, read-out: Activity
[17] = system: OVCAR-4; experiment: Cytotoxicity against Homo sapiens (human) OVCAR4 cells assessed as cell growth at 10 uM after 48 hr by SRB assay relative to control; conditions: OVCAR-4, 48 h, read-out: Activity
[18] = system: UACC-62; experiment: Cytotoxicity against Homo sapiens (human) UACC62 cells assessed as cell growth at 10 uM after 48 hr by SRB assay relative to control; conditions: UACC-62, 48 h, read-out: Activity
[19] = system: UACC-257; experiment: Cytotoxicity against Homo sapiens (human) UACC257 cells assessed as cell growth at 10 uM after 48 hr by SRB assay relative to control; conditions: UACC-257, 48 h, read-out: Activity
[20] = system: SK-MEL-28; experiment: Cytotoxicity against Homo sapiens (human) SK-MEL-28 cells assessed as cell growth at 10 uM after 48 hr by SRB assay relative to control; conditions: SK-MEL-28, 48 h, read-out: Activity
[21] = system: Malme-3M; experiment: Cytotoxicity against Homo sapiens (human) MALME-3M cells assessed as cell growth at 10 uM after 48 hr by SRB assay relative to control; conditions: read-out: Activity
[22] = system: UACC-62; experiment: Cytotoxicity against Homo sapiens (human) UACC62 cells after 48 hr by SRB assay; conditions: UACC-62, 48 h
[23] = system: M14; experiment: Cytotoxicity against Homo sapiens (human) M14 cells after 48 hr by SRB assay; conditions: M14, 48 h
[24] = system: U-251; experiment: Cytotoxicity against Homo sapiens (human) U251 cells after 48 hr by SRB assay; conditions: U-251, 48 h
[25] = system: SF-268; experiment: Cytotoxicity against Homo sapiens (human) SF268 cells after 48 hr by SRB assay; conditions: SF-268, 48 h
[26] = system: HOP-92; experiment: Cytotoxicity against Homo sapiens (human) HOP92 cells after 48 hr by SRB assay; conditions: HOP-92, 48 h
[27] = system: MCF7; experiment: Cytotoxicity against Homo sapiens (human) MCF7 cells after 48 hr by SRB assay; conditions: MCF7, 48 h
[28] = system: TK-10; experiment: Cytotoxicity against Homo sapiens (human) TK10 cells after 48 hr by SRB assay; conditions: TK-10, 48 h
[29] = system: HT-29; experiment: Cytotoxicity against Homo sapiens (human) HT-29 cells assessed as cell growth at 10 uM after 48 hr by SRB assay relative to control; conditions: HT-29, 48 h, read-out: Activity
[30] = system: HCT-15; experiment: Cytotoxicity against Homo sapiens (human) HCT15 cells assessed as cell growth at 10 uM after 48 hr by SRB assay relative to control; conditions: HCT-15, 48 h, read-out: Activity
[31] = system: NCI-H522; experiment: Cytotoxicity against Homo sapiens (human) NCI-H522 cells assessed as cell growth at 10 uM after 48 hr by SRB assay relative to control; conditions: NCI-H522, 48 h, read-out: Activity
[32] = system: SNB-75; experiment: Cytotoxicity against Homo sapiens (human) SNB75 cells assessed as cell growth at 10 uM after 48 hr by SRB assay relative to control; conditions: SNB-75, 48 h, read-out: Activity
[33] = read-out: pLC50 (the source's name) (converted)

COc1ccccc1CNC(=O)CSc1nc2ccccc2c2nc(=O)c(-c3ccccc3)nn12
growth at 10 µM [1]: 35.6%
growth at 10 µM [2]: 43.8%
growth at 10 µM [3]: -23.1%
GI50 [4]: 1.86 µM
LC50 [4]: > 100 µM
TGI ([4]; read-out: pTGI): > 100 µM
GI50 [5]: 1.91 µM
CC50 [5, 33]: > 100 µM
TGI ([5]; read-out: pTGI): > 100 µM
GI50 [6]: 1.86 µM
CC50 [6, 33]: > 100 µM
TGI ([6]; read-out: pTGI): > 100 µM
GI50 [7]: 3.02 µM
CC50 [7, 33]: > 100 µM
TGI ([7]; read-out: pTGI): > 100 µM
GI50 [8]: 2.69 µM
LC50 [8]: > 100 µM
TGI ([8]; read-out: pTGI): > 100 µM
GI50 [9]: 2.09 µM
CC50 [9, 33]: > 100 µM
TGI ([9]; read-out: pTGI): > 100 µM
GI50 [10]: 2.45 µM
CC50 [10, 33]: > 100 µM
TGI ([10]; read-out: pTGI (converted)): 8.51 µM
GI50 [11]: 2.14 µM
LC50 [11]: 74.1 µM
TGI ([11]; read-out: pTGI (converted)): 3.98 µM
GI50 [12]: 2.34 µM
CC50 [12, 33]: > 100 µM
TGI ([12]; read-out: pTGI): > 100 µM
growth at 10 µM [13]: 26.2%

COc1ccc(-c2nn3c(SCC(=O)Nc4ccccc4Cl)nc4ccccc4c3nc2=O)cc1
growth at 10 µM [14]: 44.3%
growth at 10 µM [15]: 37.4%
growth at 10 µM [16]: 31.5%
growth at 10 µM [17]: 45%
growth at 10 µM [18]: 18.1%
growth at 10 µM [19]: -17.1%
growth at 10 µM [20]: -5.98%
growth at 10 µM [21]: 18.8%
GI50 [22]: 2.75 µM
CC50 [22, 33]: > 100 µM
TGI ([22]; read-out: pTGI (converted)): 67.6 µM
GI50 [23]: 2.63 µM
CC50 [23, 33]: > 100 µM
TGI ([23]; read-out: pTGI (converted)): 100 µM
GI50 [24]: 1.78 µM
LC50 [24]: 18.6 µM
TGI ([24]; read-out: pTGI (converted)): 4.68 µM
GI50 [25]: 2.95 µM
CC50 [25, 33]: 72.4 µM
TGI ([25]; read-out: pTGI (converted)): 13.8 µM
GI50 [26]: 1.82 µM
CC50 [26, 33]: 42.7 µM
TGI ([26]; read-out: pTGI (converted)): 9.12 µM
GI50 [27]: 2.34 µM
CC50 [27, 33]: > 100 µM
TGI ([27]; read-out: pTGI): > 100 µM
GI50 [28]: 2.19 µM
CC50 [28, 33]: 33.9 µM
TGI ([28]; read-out: pTGI (converted)): 7.24 µM
growth at 10 µM [29]: 5.16%
growth at 10 µM [30]: 71.9%
growth at 10 µM [31]: 36.5%
growth at 10 µM [32]: 55.6%
